Source: patent US20060210504A1, “Compositions and methods for inhibiting eccrine perspiration in humans” (priority 2001, published 2006)

What was measured:
[1] = system: healthy female volunteers; test: Safety and tolerance assessment on topical application to the axilla; type: in vivo, human
Method: (§1) The antiperspirant efficacy and safety of glycopyrrolate, a quaternary ammonium salt, was tested pursuant to protocol prescribed by the Food and Drug Administration, 21CFR Part 10.90 The OTC Antiperspirant Tentative Final Monograph. So as to separate vehicle from drug effects, glycopyrrolate was presented as a simple solution in varying concentrations of 0.3%, 1% and 3% weight per volume. In each treatment group as listed below, the glycopyrrolate solution and a placebo of distilled water were applied to the axilla of healthy female volunteers. In particular, the placebo was applied to one armpit while the test solution was applied to the other armpit of a given volunteer. The designation of armpits (namely, right or left) for the application of placebo vs. solution was randomized according to the FDA protocol. In the placebo Group B, distilled water was applied to both axilla of each volunteer. Treatments were applied once daily for five consecutive days.
(§2) The clinical study was conducted among 37 healthy female volunteers. The testing further conformed to ICH guidelines and the requirements of the 1964 Declaration of Helsinki and its subsequent amendments. The study was a pilot, single-center, randomized, controlled, double-blind assessment of the safety, tolerability and antiperspirant efficacy of glycopyrrolate when applied to the axilla of healthy female volunteers.
(§3) The antiperspirant efficacy evaluation was performed approximately one hour after the fifth treatment using a standard hot room protocol. Safety and tolerance were measured by assessment of blood chemistry and hematology, electrocardiograms, daily monitoring of heart rate, blood pressure and body temperature, assessment of visual effects and dermal irritancy, and subjective assessment of tolerance.

[2] = system: sweat production in the axilla (eccrine sweat glands); test: Antiperspirant efficacy evaluation, standard hot room protocol (FDA OTC Antiperspirant Tentative Final Monograph); type: in vivo, human (healthy female volunteers); details: for mean reduction in sweat production: axilla, once daily for five days, about one hour after fifth treatment
Method: as §1
The groups comprised the following: • Group A—0.3% glycopyrrolate versus distilled water; • Group B—Placebo (distilled water applied to both axilla); • Group C—1% glycopyrrolate versus distilled water; • Group D—3% glycopyrrolate versus distilled water;
as §2
The study was conducted in two cohorts of volunteers. The first cohort comprised fourteen (14) subjects, with […] subjects assigned to placebo Group B and ten (10) subjects assigned to 0.3% Group A.
Nine (9) days following the completion of the first cohort, a second cohort of twenty-three (23) subjects were tested, with three (3) subjects assigned to placebo Group B, ten (10) subjects assigned to 1% Group C, and ten (10) subjects assigned to 3% Group D.
as §3

[3] = 0.3%, 1% and 3% w/v topical to axilla, once daily for five days
[4] = 1% w/v simple solution (Group C) vs distilled water
[5] = 3% w/v simple solution (Group D) vs distilled water

C[N+]1(C)CCC(OC(=O)C(O)(c2ccccc2)C2CCCC2)C1 (stereo not drawn) [glycopyrrolate]
pupillary dilation or other systemic symptoms of anticholinergic agents [1, 3]: no signs of pupillary dilation or other systemic symptoms
serious adverse events [1, 3]: No serious adverse events
adverse events, clinical significance ([1]; reviewed by principal investigator and attendant cardiologist): clinically non-significant
antiperspirant efficacy in words ([2]; 0.3% concentration): essentially ineffective
inhibition enjoyed by two subjects ([2]; 0.3% concentration, two subjects): 0.50 % inhibition
statistical significance of reduction in sweat production ([2]; 0.3% w/v simple solution (Group A) vs distilled water): no statistically significant reduction in sweat production
binomial criteria of 95% confidence with at least 50% of the population showing at least 20% reduction in sweating ([2]; 1% group): met the binomial criteria
range of effect (inhibition of sweating across subjects) ([2]; 1% treatment group): −16-to 54 % inhibition
statistical significance of reduction in sweat production [2, 4]: significant sweat reduction
mean reduction in sweat production [2, 4]: 32.85%±9.81
binomial criteria of 95% confidence with at least 50% of the population showing at least 20% reduction in sweating ([2]; 3% group): met the binomial criteria
range of effect (inhibition of sweating across subjects) ([2]; 3% treatment group): −13 to 90 % inhibition
statistical significance of reduction in sweat production [2, 5]: significant sweat reduction
mean reduction in sweat production [2, 5]: 54.72%±20.23
dose dependence of antiperspirant effect ([2]; simple solution, 0.3%, 1% and 3%, highest efficacy at 3%): dose-dependent antiperspirant effect
